row,SMILES,melting point [°C]
1,CCOC(=O)C(Cc1cccc(OC)c1OCc1ccccc1)(NC(C)=O)C(=O)OCC,94 to 96
2,COC(=O)c1cc(C(=O)c2cccc(F)c2)ccc1OC,140
3,Cc1csc(-c2ccc3c(c2)C=C(C(=O)Nc2ccc(CN(C)C4CCOCC4)cc2)CCS3(=O)=O)c1,232 to 234
4,O=C1C2CC(CN(Cc3ccccc3)C2)CN1Cc1ccccc1 (stereo not drawn),82.5 to 83.5
5,COCC1CCCN(c2ccnc3sc(C(N)=O)c(N)c23)C1 (stereo not drawn),229 to 230
6,Cc1c(Cl)nnc2c1CN(C(=O)c1ccccc1F)CC2,151 to 153
7,COc1cccc(C(Cn2ccnc2)=[N+](C)[O-])c1,87 to 90
8,CCOC(=O)C1=C(Cl)/C(=N/OS(C)(=O)=O)CC(c2ccc(Cl)c(OC)c2F)N1 (stereo not drawn),60 to 62
9,CCCCN(C(C)=O)c1cccc(-c2ccnc3c(C#N)cnn23)c1,146 to 148
10,CCCC1=C(C#N)C(c2ccccc2OC)c2c[nH]nc2N1 (stereo not drawn),203
11,O=C1CC2CC(Oc3nc4ccccc4[nH]3)CC2C1 (stereo not drawn),208 to 209
12,CC(C)(C)OC(=O)NCC1CCN(CC2(C(=O)O)CCOCC2)CC1,129
13,CCOC(=O)CC[C@H](NC(=O)c1ccc(Br)cc1)C(=O)OCC,82.5 to 83.5
14,CC(=O)NC(C)Cc1ccc(CCCC(=O)O)cc1 (stereo not drawn),114 to 117
15,O=C(c1ccccc1)c1ccc(OCCO)cc1,82
16,C[C@@H]1c2sccc2CN(C)[C@H]1CCNC(=O)c1ccc(NS(C)(=O)=O)cc1 (relative stereo),67 to 74
17,CCCCCCCCCCC#Cc1ccc2c(c1)c(C=O)cn2S(=O)(=O)c1ccc(C)cc1,84 to 86
18,COc1ccc(/C=C/c2ccccc2)c(OC)c1OC,79 to 82

row,SMILES,melting point [°C]
1,O=C(CCCS(=O)c1ccccc1)NO (stereo not drawn),61 to 62
2,O=c1c(Cl)c(OCc2ccc(Cl)cc2)cnn1-c1ccc(F)cc1F,167
3,CCCCn1c(=O)c(=O)[nH]c2c3ccccc3ccc21,269
4,COC(=O)c1cc(Oc2ccnc(Cl)c2)cc2ccccc12,103 to 104
5,COc1ccc(C=CC(=O)O)cc1-c1cc2c(cc1OCCCCCO)C(C)(C)CCC2(C)C,115 to 117
6,CC(C#N)=C1CCN(c2ccc(N3C[C@H](CNC(=O)CC#N)OC3=O)cc2F)CC1,194 to 196
7,COC(=O)CCC#Cc1cc(Cl)ccc1NS(=O)(=O)c1ccc2nc(NC(C)=O)sc2c1,85
8,COc1cc(NC(=O)c2cc(Br)ccc2O)cc(OC)c1,207 to 209
9,CCCN(C1CCC(c2c[nH]c3ccc(F)cc23)CC1)C1COc2cccc(OC)c2C1 (stereo not drawn),148
10,Cc1cccc2cc(C(=O)Cn3ccnc3)ccc12,264
11,NCC(O)c1cccc(C(F)(F)F)c1 (stereo not drawn),72
12,CC(C)CC(=O)Nc1ccc2oc3c(c2c1)CCC3,162 to 163
13,CN1CCN(Cc2ccc3n2Cc2ccccc2SC3c2ccccc2)CC1 (stereo not drawn),161 to 162
14,Clc1nnc(Cl)c2c1CCCC2,148 to 150
15,O=c1ccc(S(=O)(=O)c2oc3ccccc3c2O)n[nH]1,186 to 189
16,N#CCCN(CCC#N)c1ccccc1C#N,79 to 82
17,COc1ccnc(CCc2nc3cc(-c4ccc(S(=O)(=O)N(C)c5ccc(Cl)cc5)cc4)cnc3[nH]2)c1,191 to 192
18,CC(=O)N1CCN(C(=O)c2nc(-c3ccccc3)c(-c3ccc(=O)n(C(C)C)n3)s2)CC1,78 to 82

# The remaining lines, values ahead:
row,melting point [°C],SMILES
1,85 to 87,Brc1cccc(C2Cc3cnc(Nc4ccc(CCNCCN5CCOCC5)cc4)nc3-c3ccccc32)c1 (stereo not drawn)
2,271 to 272,O=C(O)c1cccc(-c2ccc3occ(-c4ccc(Cl)cc4Cl)c3c2)c1
3,118 to 120,CN(C)C(=O)C(CCO)C1CCc2c1[nH]c1ccccc21 (stereo not drawn)
4,146 to 148,CNC(=S)C1=CC(C)(COC)Oc2ccc([N+](=O)[O-])cc21 (stereo not drawn)
5,167,C=CC(=O)NCc1ccc(CBr)cc1
6,> 268,Oc1ccc(-c2ncc3ncc(-c4ccoc4)cc3n2)cc1
7,180,CCCCN1C(=O)NC(=Cc2ccc(C=O)cc2)C1=O
8,165 to 167,O=C(Nc1n[nH]c(=S)s1)NC(Cc1ccccc1)C(=O)NCCN1CCOCC1 (stereo not drawn)
9,114 to 115,COC(=O)C(C)c1ccc2nc(-c3ccc(Cl)cc3)ccc2c1 (stereo not drawn)
10,84 to 86,CC(C)N1C(=O)NC(c2ccc3ocnc3c2)c2cc3c(cc21)OCO3 (stereo not drawn)
11,108 to 110,CN1C(=O)C(=NC(Cl)=C(Cl)Cl)N(c2ccc(Cl)cc2)C1=O
12,179,Cc1cc(OS(=O)(=O)c2c(Cl)cccc2Cl)cc2c(C3CCN(C)CC3)c[nH]c12
13,224 to 226,Nc1nc2ccccc2n1-c1cccc(-c2nccs2)c1
14,182 to 184,CCC(NC(=O)COc1c(C)cccc1C)C(N)=O (stereo not drawn)
15,83 to 85,COc1cc(OC)cc(N2CCN(C(=O)N(C)c3cc4ccccc4cc3OC)CC2)c1
16,88 to 90,COc1ccc2c(c1)nc(C)n2-c1ccccc1
17,175,Cc1nccn2c(-c3ccnc(NCCC(C)(C)O)n3)c(-c3ccc(F)cc3F)nc12
18,128,Fc1ccc2[nH]cc(CCc3ccncc3)c2c1
19,194 to 196,Clc1ccc(-c2cccc3[nH]c4c(c23)CCN(Cc2ccccc2)CC4)c(Cl)c1

row,melting point [°C],SMILES
1,248 to 251,Cc1ccc2cccc(OCc3c(Cl)ccc(N)c3C#N)c2n1
2,98 to 102,COC(=O)N(C(C)C)C1C=C(C)CC=C1C(=O)c1ccc(F)cc1 (stereo not drawn)
3,143 to 144,C#CCn1c(-c2cc(Cl)nc(Cl)c2)nc(C)c(CC)c1=O
4,243,CCC(=O)Nc1ccc(C=CC(=O)O)cc1
5,109,C=C[C@@H](C[C@H](O)[C@H](CC1CCCCC1)NC(=O)[C@H](Cc1c[nH]cn1)NC(=O)[C@@H](CC(=O)NN)Cc1ccccc1)C(C)C
6,229 to 231,CSc1nc(=O)c2cccc3c2n1-c1cc(C(F)(F)F)ccc1S3
7,214,CNC(=O)Nc1ccc(Cl)cc1Cl
8,139 to 145,CCS(=O)(=O)CCC(=O)NNC(=O)N1Cc2ccccc2Oc2ccc(C(F)(F)F)cc21
9,36 to 38,CC1=C(C)C(=O)C(CCCCO)=C(C)C1=O
10,91 to 92,CN(c1ccc(OCCCCBr)cc1)S(=O)(=O)c1ccc(C(F)(F)F)cc1
11,196 to 197,N#Cc1ccc(OCCOc2ccc(C#N)cc2)cc1
12,109 to 111,Nc1cc(I)cnc1N
13,191 to 193,Nc1ccc2c(c1)S(=O)(=O)N=C2NCCCOc1cccc(CN2CCCCC2)c1
14,92,CC(=O)N1CCc2ccsc2C1=O
15,86,O=C(O)Cc1ccc(SCCNC(=O)C2Cc3ccccc3N2S(=O)(=O)c2ccc(-c3ccccc3C(F)(F)F)cc2)c(Cl)c1 (stereo not drawn)
16,124 to 126,CCN(CC)CCN1c2cc(Cl)ccc2S[C@H]2[C@@H](OC(=O)c3ccccc3)[C@H](OC(=O)c3ccccc3)[C@@H](COC(=O)c3ccccc3)O[C@H]21
17,181 to 183,CC12CCC3c4cc(O)c(O)cc4CCC3C1CCC2O (stereo not drawn)
18,267 to 268,COc1cc2nc(N3CCC(N4C(=O)C(C)C(C)C4=O)CC3)nc(N)c2cc1OC (stereo not drawn)

# — a melting point compilation (Tetko et al.; mined from patent text by program, amines drawn as free bases though some values may be those of a salt)
